In patent US20220339233A1, “COMPOSITIONS AND METHODS FOR PREVENTING RECURRENCE OF CANCER” (YALE UNIVERSITY, priority 2019, published 2022):

What was measured:
Raw cells = test: iNOS/Arg mRNA expression of macrophage with IFNγ (RT-qPCR); format: cell-based; conditions: in the presence of IFNγ 10 ng/mL; GU treated
Description: (§1) FIGS. 12A-12C show the effects of various YIV-906 formulations on M1/M2 mRNA expression. […] Raw cells were cultured in the presence of murine M-CSF (10 ng/mL) for 3 days, and then cultured in presence with IFNγ 10 ng/mL alone or with YIV-906GU/its components to induce polarization to M1-like macrophage for 24 h. The mRNA expression was determined by RT-qPCR following treatment at day 8. FIG. 12C illustrates the detection of YIV-906 compounds of Hepa 1-6 tumor following oral administration of YIV-906 with or without Anti-PD1 using LC-MS as described herein.
Total RNA was extracted with TRIzol reagent (Invitrogen, California, USA). The aqueous phase was collected and then one volume of ethanol was added, following the manufacturer's instructions. Before centrifuging, this slurry was added to a column (miRNeasy, Qiagen, Venlo, Limburg) for further extraction and simultaneous DNA digestion (RNase-Free DNAse set, Qiagen). cDNA was synthesized using random primers and reverse transcriptase MMLV (New England Biolabs, Ipswich, MA). qPCR assays were performed using iTaq™ SYBR® Green Supermix and the CFX96 Real-Time PCR Detection System (Bio-Rad Laboratories, Hercules, Calif.).

mouse IDO = biological target: T1, mouse IDO (Mus musculus, UniProt P28776); test: IDO activity of IDO transfected HEK293 cells; format: cell-based; conditions: L-tryptophan 125 μM, 24 hr, kynurenine in medium
T1 construct: expressed in transfected cells; host or cells: HEK293
Description: HEK293 cells were transfected with mouse IDO expression plasmids and then seeded for culturing overnight. L-tryptophan 125 μM with or without YIV906, YIV906GU or its flavonoids were added to the wells for 24 hr. The concentration of kynurenine of culture medium was measured using colorimetric based assay. Results were normalized to protein concentration in each well.
2×10^6 HEK293 cells were transfected with mouse IDO (2 μg/10 cm plate) for 48 h. For one plate, 1 mL PBS was used to collect cells into a 2 ml tube. Cells were centrifuged at 3,500 rpm 1 min. Cells were then sonicated in ice cold PB buffer (1 mL, pH 6.5). Cell lysis was clarified by centrifuging at 12,000 rpm for 5 min at 4° C. 25 μL cell lysis solution was mixed with YIV906 or YIV906GU (25 μL) at desired concentrations. Reaction buffer containing 50 μL PB buffer (100 mM, pH 6.5), 10 μL methylene blue (2.5%), 100 μL catalase (20 mg/mL), 250 μL L-tryptophan (500 mM) and, for every 10 mL of total solution, 70 mg of vitamin C. The reaction buffer was then added to the cell lysis solution. The solution was allowed to react for 1.5 h at 37° C. Trichloroacetic acid 30% (25 μL) was added and incubated at 50° C. for 1 hr. […] Absorbance at 540 nm was measured using a UV-vis spectrometer to determine kynurenine concentration.

[1] = LC-MS detection of YIV-906 compounds of Hepa 1-6 tumor; design: species or system mice; conditions: mouse, in vivo; for detection in the tumor mass: po
Description: as §1
Each tumor sample were homogenized in 200 μL acetronitrile/methanol/water(2/2/1, v/v/v) and 1 mm glass beads (BioSpec Products, Bartlesville, Okla.) for 30 s at 3500 rpm twice. The homogenate was then centrifuged at 12000 rpm for 15 min at 4° C. The supernatant was dried down in a Speedvac. The residue of each tumor sample was re-dissolved in 100 μL of acetonitrile, and vortexed at 3000 rpm for 3 min. The solution was then centrifuged at 12000 rpm at 4° C. for 15 min, and 2 μL supernatant was injected into the UPLC-QTOF system for analysis. All sample analyses were performed on an ACQUITY ultra-performance liquid chromatography (UPLC) system coupled with a quadrupole-time of flight (Q-TOF) MS instrument (UPLC Xevo G2-XS QTOF MS, Waters Corp., Milford, Mass., USA) with an electrospray ionization (ESI) source. Separation was carried out on a Waters ACQUITY BEH C18 column (2.1 mm×100 mm id, 1.7 μm) with a guard column (Waters ACQUITY BEH C18 column (2.1 mm×5 mm id, 1.7 μm)).
The mobile phase consisted of acetonitrile (A) and water containing 0.1% formic acid (B) using a gradient elution of 5% A at 0-2 min, 5-10% A at 2-3 min, 10-17% A at 3-10 min, 17-30% A at 10-15 min, 30-40% A at 15-20 min, 40-80% A at 20-25 min, 80% A at 25-30 min, 80-5% A at 30-31 min, and 5% A at 31-35 min. The flow rate was 0.3 mL/min. Mass spectrometry was performed on a Water Xevo G2-XS QTOF. The scan range was from 50 to 1000 Da. For the negative electrospray mode, the capillary voltage and cone voltage were set at 2.5 kV and 60 V, respectively. […]

T1 sequence (P28776 whole entry): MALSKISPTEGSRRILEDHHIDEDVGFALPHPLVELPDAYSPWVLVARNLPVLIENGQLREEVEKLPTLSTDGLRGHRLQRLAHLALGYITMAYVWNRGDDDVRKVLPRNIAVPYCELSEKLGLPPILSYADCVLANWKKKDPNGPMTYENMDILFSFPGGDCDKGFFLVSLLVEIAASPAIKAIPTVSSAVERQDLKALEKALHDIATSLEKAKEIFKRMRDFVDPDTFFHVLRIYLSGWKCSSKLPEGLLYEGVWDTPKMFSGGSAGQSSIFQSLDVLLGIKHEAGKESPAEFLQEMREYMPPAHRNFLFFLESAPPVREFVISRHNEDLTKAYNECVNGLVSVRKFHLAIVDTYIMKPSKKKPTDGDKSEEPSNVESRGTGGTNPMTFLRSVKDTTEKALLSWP

| SMILES | IFNγ action on increasing iNOS/Arg ratio (Raw cells) | IDO enzyme activity in cell cultures (mouse IDO) | presence in tumors of the YIV-906 plus anti-PD1 group [1] | detection in the tumor mass [1] |
| --- | --- | --- | --- | --- |
| O=c1cc(-c2ccccc2)oc2cc(O)c(O)c(O)c12 [baicalein] | potentiate | most potent | did not have | detected |
| COc1c(O)cc2oc(-c3ccccc3)cc(=O)c2c1O [oroxylin A] | potentiate | – | – | detected |
